# In patent US9220706B2, “Inhibition of leukemic stem cells by PP2A activating agents” (Ohio State Innovation Foundation, priority 2012, dated 2015):
# Assays:
# SET-PP2A interaction = target: T1, SET-PP2A interaction (Homo sapiens, UniProt Q01105); assay: Proximity ligation assay, SET-PP2A association; type: cell-based; conditions: CD34^+/CD38^− CML cells, 24 h
# T1 construct: untreated and FTY720-treated (24 h) CD34^+/CD38^− CML cells; endogenous in cells; host or cells: CD34+/CD38- CML patient cells
# T1 sequence (Q01105 1-277 isoform Q01105-2): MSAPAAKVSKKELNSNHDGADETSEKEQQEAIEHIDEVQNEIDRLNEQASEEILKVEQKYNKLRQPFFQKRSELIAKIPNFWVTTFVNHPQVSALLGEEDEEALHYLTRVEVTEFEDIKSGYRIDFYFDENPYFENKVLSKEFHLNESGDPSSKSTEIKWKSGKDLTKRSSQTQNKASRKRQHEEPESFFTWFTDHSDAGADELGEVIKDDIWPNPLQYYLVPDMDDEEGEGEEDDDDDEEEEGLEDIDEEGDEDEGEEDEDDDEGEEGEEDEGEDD
# Description: Immunofluorescence and proximity ligation assay. CD34^+/CD38^− cells from CML patient samples or LSK cells derived from induced leukemic mice were sorted, treated in liquid culture with the indicated drugs and cytospun onto glass slides. Slides were fixed in 3.7% formaldehyde, penneabilized with 0.05% Triton X-100, and stained with an Anti-®-catenin primary antibody (Cell signaling), a secondary goat F(ab′) anti-rabbit conjugated to Alexa Fluor 647, and the nuclear stain DAPI (Invitrogen); slides were mounted with Slowfade antifade reagent (Invitrogen). Microphotographs were obtained with a Zeiss LSM 510 confocal laser-scanning microscope with C-Apochromat 63/1.2 W objective. A minimum of three fields for each slide were acquired. For the Proximity Ligation Assay (PLA) CD34+/CD38− CML cells were treated, fixed, and permeabilized as described above. The slides were then simultaneously stained with a mix of mouse anti-PP2A (Millipore) and rabbit anti-SET (Globozyme) antibodies. The PLA procedure (Duolink; Olink Bioscience) was performed according to manufacturer instructions. An average of 20 z-stack ([…]) were captured with a Zeiss LSM 510 confocal laser-scanning microscope with C-Apochromat 63/1.2 W objective; at least three fields/slide were acquired. Three-dimensional projections were generated and positive signals/cell were calculated by ImageJ software (NIH).
# [1] = test system: human CML CD34^+ BM cells in NSG mice; type: in vivo
# Description: Engraftment of Human Normal and CML Cells in Immnunodeficient NSG Mice and Effect of FTY720 on Leukemic and Normal Hematopoietic Stem/Progenitor Cells. CD34+ cells were isolated from BM of CML patients (n=3) or from umbilical cord blood specimens (UCB; n=3). Note that CML samples were from patients in blastic transformation with ≧75% of Ph+ blasts. Sublethally irradiated (260 rads) 6-8 week-old NOD.Cg-Prkds^scid IL2rg^tm1WjI/SzJ (NSG, Jackson Laboratory) mice were intrafemorally injected with 1-3×10^6 CML or 10^5 UCB CD34^+ cells/mouse. The engraftment was assessed 8 weeks post-transplant by anti-human CD45 (BD Biosciences) and anti-mouse CD45.1 flow staining of intrafemoral BM aspirates and PB from tail vein. Wunderlich et al., Leukemia 24, 1785-1788 (2010). CML- and UCB-engrafted NSG mice were treated for 8 weeks (8-10 mice/group) with either FTY720 (10 mg/kg/day; i.p.) or PBS. Disease evolution and effect of FTY720 on HSC-enriched cell fraction (CD45^+/CD34^+/CD38^−), primitive progenitors (CD45+/CD34+), myeloid (CD45^+/CD34^+/CD33^+), B-cell (CD45^+/CD19^+) and T-cell (CD45^+/CD3^+) compartments were determined before and after 4/8 weeks of FTY720 treatment by FACS-mediated analysis of BM aspirates and/or PB cells. BCR-ABL1 transcript levels were monitored by qRT-PCR-mediated (Ipsogen) analysis of BCR-ABL1/human Abl1 ratios in total RNA samples derived from BM-aspirates of CML-engrafted animals at time of engraftment (time 0) and after 8 weeks of FTY720 treatment. […] These studies were performed by IRB and IACUC approved protocols.
# Fluorescent in situ hybridization (FISH). Human CD45+ cells from intrafemoral BM aspirates of untreated and 8 weeks FTY720-treated NSG mice engrafted with CD34+ CML-BC and UCB cells, were FACS-isolated, dropped onto microscope slides, and fixed in a solution of three parts methanol and one part acetic acid. A triple color, dual fusion BCR/ABL1 FISH probe was applied according to the manufacturer's instructions (Kreatech Diagnostics). Hybridized slides were counterstained with DAPI and visualized under an Olympus BX41 microscope. Images were captured using a Hammamatsu Orca II CCD camera and SmartCapture X software (Digital Scientific).
# BCR-ABL1^+ cells = assay: Intracellular phosphorylation of FTY720; type: cell-based
# JAK2 = assay: Intracellular flow staining of active JAK2 (pJAK2); type: cell-based, human; conditions: CML CFSE^max/CD34^+ cells
# Protocol: Flow cytontetric analysis and sorting of HSCs. Primary CD34^+ cells were isolated by magnetic cell sorting (CD34 MultiSort; Miltenyi Biotec) and kept in IMDM supplemented with 30% FBS, 2 mM Lglutamine, rhIL-3 (20 ng/ml), rhIL-6 (20 ng/ml), rhFlt-3 ligand (100 ng/ml), and rhKL (100 ng/ml) (Stem Cell Technologies). The CD34+ fraction derived from the BM of healthy donors and the PB or BM from CML patients was stained with anti-CD34 FITC or PE, and anti-CD38 PE-Cy7 (BD Biosciences). The Lin− fraction of murine mononuclear cells was stained with anti-Sca-1 PeCy7 (BD Biosciences) and anti-c-kit APC-AlexaFluor750 (eBioscience), The CD34^+/CD38^− or the Lin−/Sca-1+/c-Kit+ (LSK) fractions were sorted by fluorescence-activated cell sorting with a FACS Aria II instrument (BD Biosciences). […]
# [2] = BM of NSG mice, 4 and 8 weeks FTY720 10 mg/kg/day i.p.
smiles,measurement,setting,value
CCCCCCCCc1ccc(CCC(N)(CO)CO)cc1 [FTY720],SET-PP2A interaction,SET-PP2A interaction,disrupts the SET-PP2A interaction
same,BCR-ABL1 transcripts (BCR-ABL1/hAbl1),[1]; BM aspirates of FTY720-treated CML-engrafted mice,significant decrease
same,reduction in CD45^+/CD34^+ progenitors,[1]; [2],~85%
same,reduction in CD45^+/CD34^+/CD38^− HSCs,[1]; [2],~97%
same,reduction in total hCD45^+ cells,[1]; [2],~83%
same,Ph^+ hCD45^+/CD33^+ myeloid cells,[1]; CML-engrafted NSG mice,also reduced
same,adverse effects or changes in animal behavior,"[1]; mouse, in vivo, ip, 10 mg/kg/day",have not been noted
same,intracellular FTY720 remaining unphosphorylated,BCR-ABL1^+ cells,more than 90%
same,JAK2 activity (pJAK2),JAK2,suppressed
